From patent US10408843B2, “Compositions and methods for detecting S-nitrosylation and S-sulfinylation” (The Regents of the University of Michigan, priority 2013, dated 2019)

Legend:
[1] = system: S-nitrosylated proteins in mammalian cell lysates; assay: Gel-based labeling of endogenous S-nitrosylated proteins in cell lysates; type: biochemical, human; conditions: lysates denatured, alkylated with iodoacetamide; streptavidin detection
Protocol: FIG. 8. Dose-dependent labeling of S-nitrosylated proteins by biotin-SO2H. 293T and PANC1 cells were lysed in 6 M urea/PBS and alkylated with 50 mM iodoacetamide for 30 minutes, followed by incubation with increasing concentrations of biotin-SO2H for 45 minutes.
Next, the reactivity of sulfinic acids with native S-nitrosylated proteins was examined. Biotin and fluorescein N-hydroxysuccinimide (NHS) esters were directly coupled to the biological sulfinic acid metabolite hypotaurine (biotin-SO2H) or the sulfonic acid metabolite taurine (biotin-SO3H). Each probe was incubated with mammalian cell lysates pre-alkylated with excess iodoacetamide (FIG. 1b) in 6 M urea/phosphate buffered saline (PBS), and separated by non-reducing SDS-PAGE for transfer to nitrocellulose and streptavidin detection. […]
Cells and lysates were protected from light and kept on ice throughout the labeling protocol, except when noted. […] Lysate protein concentrations were quantified using the Bio-Rad DC assay, and diluted 3 mg/mL in 6 M urea/PBS. […] For in-gel fluorescence analysis, samples were loaded without boiling using non-reducing SDS-PAGE loading buffer for SDS-PAGE separation. […] In-gel fluorescence and streptavidin blots were analyzed using a GE typhoon scanner at appropriate wavelengths (488/526 for fluorescein and 633/670 for Cy5-Streptavidin).

293T cell lysates = assay: SILAC quantitative mass spectrometry of biotin-SO2H enrichment; type: biochemical, human; conditions: quantified in ≥3 replicates, ≥3 quantified peptides; 400 μM probe
Protocol: FIG. 16. Quantitative analysis of biotin-SO2H enrichment in 293T cell lysates. Samples were prepared in two sets, one with biotin-SO2H in the “Light” matched with biotin-SO3H in the “Heavy” (N=2), and the other in reverse (N=2). Each was ran as two technical replicated and SILAC ratios (biotin-SO2H/biotin-SO3H) were combined across experiments. “Directions Detected” describes the set of SILAC samples where the protein was quantified. FORWARD refers to biotin-SO2H (light)/biotin-SO3H (heavy), and REVERSE is the opposite direction, biotin-SO2H (heavy)/biotin-SO3H (light). […] Label-free quantification was performed using the Top3 method from the biotin-SO2H labeled pair.
Next, biotin-SO2H labeling was combined with stable-isotope labeling with amino acids in cell culture (SILAC) for quantitative mass spectrometry annotation of endogenous S-sulfinylation in mammalian cells. […] Peptides were analyzed using data-independent acquisition methods in combination with ion mobility separation (HDMS^E) and mobility-dependent collision energy assignment for enhanced fragmentation (see, e.g., Distler, U. et al. Nat Methods (2013)). Through a combination of 4 biological replicates, each with 2 technical replicates, a total of 992 proteins were identified with SILAC ratios >5 (biotin-SO2H/biotin-SO3H), quantified in ≥3 replicates, and represented by ≥3 quantified peptides (FIG. 16). […]

O=C(CCCC[C@@H]1SC[C@@H]2NC(=O)N[C@@H]21)NCCS(=O)O [biotin-SO2H, 2-(5-((3aS,4S,6aR)-2-oxohexahydro-1H-thieno[3,4-d]imidazol-4-yl)pentanamido)ethanesulfinic Acid]
labeling of mammalian proteins [1]: labels distinct mammalian proteins | proteins identified with SILAC ratios >5 (biotin-SO2H/biotin-SO3H) (293T cell lysates): 992 proteins
